Structures can show the parent of a compound that is named as a salt.

System in the first data set: not given
Assay: not given
Settings: not given
For the compound `Fc1ccc(Nc2nc(NCc3ccco3)nc(Nc3ccccc3)n2)cc1` (hydrate or solvate) [Example 764], the melting point lay in the range of 144 to 148 °C.

As to `Cc1ccc(Nc2nc(Nc3ccccc3)nc(NC(C)C)n2)cc1` (as salt: HCl) [Ex 47], the melting point lay in the range of 194 to 195 °C.

In the case of `CCONc1nc(Nc2ccccc2)nc(Nc2ccc(F)cc2)n1` (as salt: HCl) (hydrate or solvate) [Example 790], the melting point lay in the range of 141 to 143 °C.

Compound `OCCCCCNc1nc(Nc2ccccc2)nc(Nc2ccc(F)cc2)n1` (as salt: HCl) [Example 776] displayed a melting point of 178 to 180 °C.

A further data set deals with T1, BEC 1 potassium channel (Homo sapiens, UniProt Q9ULD8).
T1 construct: expressed in transfected cells
T1 sequence (Q9ULD8 1-1083): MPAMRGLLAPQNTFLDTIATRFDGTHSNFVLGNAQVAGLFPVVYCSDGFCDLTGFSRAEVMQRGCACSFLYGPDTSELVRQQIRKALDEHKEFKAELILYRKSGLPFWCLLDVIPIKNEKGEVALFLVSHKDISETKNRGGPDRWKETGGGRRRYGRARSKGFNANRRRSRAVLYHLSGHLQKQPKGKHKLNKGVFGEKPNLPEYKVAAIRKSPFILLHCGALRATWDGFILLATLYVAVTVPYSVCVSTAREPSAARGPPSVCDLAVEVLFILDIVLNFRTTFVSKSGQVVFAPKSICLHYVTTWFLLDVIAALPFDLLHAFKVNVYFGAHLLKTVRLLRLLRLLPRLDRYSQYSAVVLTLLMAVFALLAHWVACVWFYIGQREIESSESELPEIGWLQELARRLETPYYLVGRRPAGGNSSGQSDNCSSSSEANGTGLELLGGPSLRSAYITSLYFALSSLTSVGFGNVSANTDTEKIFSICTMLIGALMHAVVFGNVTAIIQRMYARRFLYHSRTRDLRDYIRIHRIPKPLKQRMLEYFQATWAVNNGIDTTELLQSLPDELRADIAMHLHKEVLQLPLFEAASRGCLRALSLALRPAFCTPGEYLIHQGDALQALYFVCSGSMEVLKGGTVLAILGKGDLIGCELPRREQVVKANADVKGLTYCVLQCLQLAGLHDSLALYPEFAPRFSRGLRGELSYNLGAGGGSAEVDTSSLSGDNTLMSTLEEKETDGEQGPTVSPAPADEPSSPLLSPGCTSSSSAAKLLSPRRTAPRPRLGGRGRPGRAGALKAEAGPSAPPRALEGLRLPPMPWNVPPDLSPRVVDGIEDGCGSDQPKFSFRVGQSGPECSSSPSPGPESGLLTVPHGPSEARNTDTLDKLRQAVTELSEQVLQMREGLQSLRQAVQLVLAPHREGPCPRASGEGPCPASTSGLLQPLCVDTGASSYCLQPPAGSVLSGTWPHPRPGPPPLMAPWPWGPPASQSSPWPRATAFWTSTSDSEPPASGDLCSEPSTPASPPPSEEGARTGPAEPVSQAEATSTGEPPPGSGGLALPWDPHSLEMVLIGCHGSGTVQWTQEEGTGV
As to the kind of experiment: BEC 1 inhibitory activity using released amount of 86Rb ions from BEC 1-expressing cells. Type of data set: cell-based. The following applies: 86Rb ion release, BEC 1-stably expressing CHO (dhfr-deficient) cell, 100 mM KCl stimulation; read-out: BEC1 IC50. On the procedure: In general, the potassium channel can pass Rb^+ ion similar to K^+ ion, so that the channel activity can be measured using release of a radioisotope ^86Rb^+ as a marker. By incubating cells expressing the novel potassium channel protein together with ^86RbCl (e.g., 18 hr, 37° C.), ^86Rb^+ can be incorporated into the cells. The cells are washed with a low K^+ concentration physiological saline (e.g., 4.5 mM K^+) and then suspended in the same solution. When a high K^+ concentration solution (e.g., 100 mM in final concentration) is added to the cell suspension, membrane potential of the cell is depolarized and the potassium channel therefore is activated. As a result, the intracellular ^86Rb^+ is released into the extracellular part, thus radioactivity of the extracellular solution can be used as a marker of the channel activity. It is possible to screen a compound and a peptide capable of modifying activity of the BEC 1 potassium channel protein, by comparing the radioactivity released into the extracellular part when the high K^+ concentration solution is added in the presence and absence of each drug to be tested.
Method for Measuring BEC 1 Inhibitory Activity of Compounds Using Released Amount of ^86Rb ions as the Index
The channel activity of BEC 1 was measured in accordance with the method described in WO 99/37677, using amount of a radioisotope ^86Rb ion released from a BEC 1-expressing cell as the index. That is, when an ^86Rb ion-incorporated BEC 1-expressing cell was stimulated with 100 mM KCl, the radioactivity released from the cell was used as the channel activity of BEC 1. The ^86Rb ions were incorporated into a BEC 1-stably expressing cell by culturing the cell (3 hours, 37° C.) in the presence of ^86RbCl (0.5 μCi/ml), and the un-incorporated ^86Rb ions were removed by washing three times with HEPES-buffered saline (pH 7.4, 2.5 mM KCl). The cells were incubated with HEPES-buffered saline containing a compound to be tested at room temperature for 15 minutes and then further incubated with 100 mM KCl-containing HEPES-buffered saline (pH 7.4) containing the compound to be tested at room temperature for 5 minutes. The extracellular medium was recovered, and then the remaining cells were lysed with 0.1 N NaOH and recovered.
The Cerenkov radioactivity of the extracellular medium and cell lysate was respectively measured, and their total was used as the total radioactivity. The released amount of ^86Rb ions was expressed by the percentage of extracellular medium radioactivity based on the total radioactivity. The value obtained in the presence of the compound was used as a test value, and the value obtained in the absence of the compound as a control value and the value obtained when not stimulated with 100 mM KCl as a blank value. Inhibitory action of each compound was expressed by % inhibition, namely (control value−test value)×100/(control value−blank value), or by an IC50 value calculated from the % inhibition. As the test results of typical compounds are shown in the following Tables 2 and 3, it was confirmed that said compounds have the BEC 1 potassium channel inhibitory action.
In this connection, as the BEC 1-expressing cell, a BEC 1-stably expressing cell prepared in accordance with the method described in WO 99/37677 using a dihydrofolate reductase (dhfr)-deficient strain of a Chinese hamster ovary cell was used.
For the compound `CC(C)Nc1nc(Nc2ccccc2)nc(Nc2ccc(C(F)(F)F)cc2)n1` [Ex 49], the IC50 is 0.14 µM.

Consider `OCCOCCNc1nc(Nc2ccc(F)cc2)nc(Nc2ccc(F)cc2)n1` [compound 38], for which the IC50 came to 0.18 µM.

Consider `CC(CCCC(C)(C)O)Nc1nc(Nc2ccccc2)nc(Nc2ccccc2)n1` (centres unmarked) [Example 742], for which the IC50 amounted to 1.4 µM.

Regarding `OCCOCCNc1nc(Nc2ccccc2)nc(Nc2ccccc2)n1` [compound 23], the IC50 worked out at 0.24 µM.

Take `CC(C)Nc1nc(Nc2ccccc2)nc(Nc2ccc(Cl)cc2)n1` [Ex 46]: the IC50 was determined as 0.49 µM.

For the compound `CCONc1nc(Nc2ccccc2)nc(Nc2ccc(F)cc2)n1` [Example 790], the IC50 worked out at 4.7 µM.

Regarding `OCCCNc1nc(Nc2ccccc2)nc(Nc2ccccc2)n1` [compound 21], the IC50 was determined as 0.59 µM.

As for `Fc1ccc(Nc2nc(NCc3ccnc(F)c3)nc(Nc3ccc(Cl)cc3)n2)cc1` [Example 797], the IC50 was determined as 0.65 µM.

Take `[O-][n+]1ccc(CCNc2nc(Nc3ccccc3)nc(Nc3ccccc3)n2)cc1` [Example 740]: the IC50 came to 4.9 µM.

`CONc1nc(Nc2ccccc2)nc(Nc2ccc(F)cc2)n1` [Example 789]: the 50% inhibitory concentration (IC50) was determined as 9.5 µM.

As to `OCCCCCNc1nc(Nc2ccc(F)cc2)nc(Nc2ccc(F)cc2)n1` [compound 37], the IC50 was 0.26 µM.

`Nc1cc(CNc2nc(Nc3ccccc3)nc(Nc3ccc(F)cc3)n2)ccn1` [Example 747]: the 50% inhibitory concentration (IC50) was 3.6 µM.

On to `OCCCNc1nc(Nc2ccccc2)nc(Nc2ccc(F)cc2)n1` [Example 774], for which the IC50 is 0.55 µM.

For the compound “N-isopropyl-N′,N″-bis(4-methoxyphenyl)-1,3,5-triazine-1,3,5-triamine hydrochloride [compound 39]”, the half-inhibitory concentration (IC50) is 0.66 µM.

As for `Cc1ccc(Nc2nc(Nc3ccccc3)nc(NC(C)C)n2)cc1` [Ex 47], the IC50 stood at 0.72 µM.

In the case of `COc1ccc(Nc2nc(Nc3ccccc3)nc(NC(C)C)n2)cc1` [Ex 48], the IC50 is 0.29 µM.

On to `CC(C)Nc1nc(Nc2ccc3c(c2)OCO3)nc(Nc2ccc3c(c2)OCO3)n1` [compound 41], for which the IC50 was 0.4 µM.

Regarding `COCCNc1nc(Nc2ccc(F)cc2)nc(Nc2ccc(F)cc2)n1` [compound 35], the half-maximal inhibitory concentration (IC50) amounted to 0.24 µM.

As to `OCCCCCNc1nc(Nc2ccccc2)nc(Nc2ccc(F)cc2)n1` [Example 776], the IC50 is 0.14 µM.

As for `COc1cccc(Nc2nc(Nc3cccc(OC)c3)nc(NC(C)C)n2)c1` [compound 40], the 50% inhibitory concentration (IC50) was found to be 0.63 µM.

For `Fc1ccc(CNc2nc(Nc3ccc(F)cc3)nc(Nc3ccc(F)cc3)n2)cc1` [compound 29], the IC50 amounted to 0.35 µM.

Regarding `COCCNc1nc(Nc2ccccc2)nc(Nc2ccc(F)cc2)n1` [Example 771], the IC50 came to 0.25 µM.

As to `OCCOCCNc1nc(Nc2ccccc2)nc(Nc2ccc(F)cc2)n1` [Example 777], the IC50 came to 0.21 µM.

On to `Fc1ccc(Nc2nc(NCc3ccco3)nc(Nc3ccccc3)n2)cc1` [Example 764], for which the IC50 turned out to be 0.047 µM.

In the case of `CN(C)Nc1nc(Nc2ccccc2)nc(Nc2ccc(F)cc2)n1` [Example 791], the IC50 is 2.2 µM.

For the compound `Fc1ccc(Nc2nc(NCc3ccnc(F)c3)nc(Nc3ccc(F)cc3)n2)cc1` [Example 743], the IC50 came to 0.1 µM.

With `CCN(CC)CCCC(C)Nc1nc(Nc2ccccc2)nc(Nc2ccc(F)cc2)n1` (centres unmarked) [Example 794], the half-inhibitory concentration (IC50) worked out at 3.1 µM.

Regarding `Fc1ccc(Nc2nc(NCc3ccccc3)nc(Nc3ccc(F)cc3)n2)cc1` [compound 28], the IC50 came out at 0.39 µM.

Regarding `Fc1ccc(Nc2nc(NCc3cccs3)nc(Nc3ccc(F)cc3)n2)cc1` [compound 31], the IC50 was found to be 0.49 µM.

On to `COCCNc1nc(Nc2ccccc2)nc(Nc2ccc(OC)cc2)n1` [Example 808], for which the IC50 is 0.42 µM.

Take `COCCCNc1nc(Nc2ccccc2)nc(Nc2ccccc2)n1` [compound 18]: the concentration for half-maximal inhibition (IC50) came out at 1.1 µM.

`c1ccc(Nc2nc(NCc3ccncc3)nc(Nc3ccccc3)n2)cc1` [compound 1, N,N′-diphenyl-N″-(4-pyridylmethyl)-1,3,5-triazine-2,4,6-triamine]: the IC50 was found to be 0.084 µM.

Regarding `OCCNc1nc(Nc2ccccc2)nc(Nc2ccc(F)cc2)n1` [Example 773], the IC50 amounted to 1.5 µM.

For `c1ccc(Nc2nc(NCC3CCOCC3)nc(Nc3ccccc3)n2)cc1` [Example 741], the IC50 is 0.52 µM.

On to `C#CCNc1nc(Nc2ccccc2)nc(Nc2ccccc2)n1` [compound 16], for which the half-maximal inhibitory concentration (IC50) was 0.36 µM.

Turning to `C[C@H](CO)Nc1nc(Nc2ccccc2)nc(Nc2ccc(F)cc2)n1` [Example 779], the IC50 was determined as 0.7 µM.

As to `Fc1ccc(Nc2nc(NCC3CCCO3)nc(Nc3ccc(F)cc3)n2)cc1` (centres unmarked) [compound 36], the IC50 came to 0.48 µM.

On to `OCCCCNc1nc(Nc2ccccc2)nc(Nc2ccc(F)cc2)n1` [Example 775], for which the half-maximal inhibitory concentration (IC50) was determined as 0.11 µM.

For the compound `Nc1cccc(CNc2nc(Nc3ccccc3)nc(Nc3ccc(F)cc3)n2)n1` [Example 819], the IC50 came to 1.4 µM.

With `Fc1ccc(Nc2nc(NCc3ccco3)nc(Nc3ccc(F)cc3)n2)cc1` [compound 30], the IC50 turned out to be 0.073 µM.

`CSCCCNc1nc(Nc2ccccc2)nc(Nc2ccccc2)n1` [compound 19]: the IC50 is 1.3 µM.

`O=C1OCCC1CNc1nc(Nc2ccccc2)nc(Nc2ccccc2)n1` (centres unmarked) [compound 24]: the IC50 worked out at 0.48 µM.

Staying with this data set, now noted: concentration of test compound is 3 μM; 86Rb ion release.
Consider `CCNc1nc(Nc2ccccc2)nc(Nc2ccccc2)n1` [compound 53], for which the Inhibition ratio came out at 59%.

Consider `CNc1nc(Nc2ccccc2)nc(Nc2ccccc2)n1` [compound 52], for which the Inhibition ratio stood at 31%.

`CCCNc1nc(Nc2ccccc2)nc(Nc2ccccc2)n1` [compound 54]: the Inhibition ratio was 64%.

For `c1ccc(Nc2nc(Nc3ccccc3)nc(NC3CC3)n2)cc1` [compound 62], the Inhibition ratio came to 44%.

For orientation: melting point means the temperature, or range, at which the solid turns liquid. The IC50 is the midpoint of a concentration-inhibition curve.

The values above are taken from patent publication US7375222B2, “2,4,6-Triamino-1,3,5-triazine derivative” (Astellas Pharma Inc., priority 2002, dated 2008).
